Results taken from PubChem BioAssay (NCI).
“And” between values parts separate entries of the source, which are not always exact repeats. Equal entries are not always repeated.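 Following 48 hours of exposure in 96-well plates, responses at five concentrations were used to interpolate endpoints linearly. GI50 is the concentration that inhibits growth by half. TGI is the concentration that stops growth completely.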

Key:
Experiment in all cases: DTP human tumour cell line panel, 48 h
[1] = test system: ACHN renal
[2] = test system: HCT-116 colon
[3] = test system: OVCAR-8 ovarian
[4] = test system: EKVX NSCLC
[5] = test system: PC-3 prostate
[6] = test system: UACC-257 melanoma
[7] = test system: SF-268 CNS
[8] = test system: RXF 393 renal
[9] = test system: HOP-92 NSCLC
[10] = test system: NCI-H460 lung

| Structure (SMILES) | GI50 [1] | TGI [1] [µM] | GI50 [2] [µM] | TGI [2] [µM] | GI50 [3] | TGI [3] [µM] | GI50 [4] | TGI [4] [µM] | GI50 [5] | TGI [5] [µM] | GI50 [6] | TGI [6] [µM] | GI50 [7] [µM] | TGI [7] | GI50 [8] [µM] | TGI [8] | GI50 [9] [µM] | TGI [9] | GI50 [10] [µM] | TGI [10] |
| --- | --- | --- | --- | --- | --- | --- | --- | --- | --- | --- | --- | --- | --- | --- | --- | --- | --- | --- | --- | --- |
| CC1SC(c2ccc(Cl)cc2)N(CCc2cccs2)C1=O (stereo not drawn) | 1.88 µM | 4.89 | 1.09 | 2.28 | 1.93 µM | 4.08 | 1.3 µM | 4.47 | 1.75 µM | 5.07 | 1.99 µM | 4.23 | 1.55 | 3.49 µM | 1.56 | 2.94 µM | 0.855 | 2.2 µM | 1.56 | 3.26 µM |
| C[C@H]1C[C@H]2[C@@H]3CCC4=CC(=O)C=C[C@]4(C)C3=CC[C@]2(C)[C@@]1(O)C(=O)CO | – | > 100 | – | > 100 | – | > 100 | – | > 100 | – | > 100 | – | > 100 | – | > 100 µM | – | > 100 µM | – | > 100 µM | – | > 100 µM |
| COc1ccc(C(=O)Oc2c(C#N)sc3c2c(=O)n(-c2ccccc2)c(=S)n3-c2ccccc2)cc1 | – | > 100 | – | 48.9 | – | > 100 | – | 31.3 | – | 98.7 | – | > 100 | – | > 100 µM | – | 53.7 µM | – | 67.5 µM | – | > 100 µM |
| O=c1[nH]c2nc[nH]c2c(=O)n1C1CCCCC1 | – | > 100 | – | > 100 | – | > 100 | – | > 100 | – | > 100 | – | > 100 | – | > 100 µM | – | > 100 µM | – | > 100 µM | – | > 100 µM |
| c1ccc(COC2C3COC(O3)C(OCc3ccccc3)C2OCc2ccccc2)cc1 (stereo not drawn) | – | > 100 | – | > 100 | – | > 100 | – | > 100 | – | > 100 | – | > 100 | – | > 100 µM | – | > 100 µM | – | > 100 µM | – | > 100 µM |
| O=C(/C=C(\Nc1ccccc1O)c1ccc(Br)cc1)C(Cl)(Cl)Cl | – | 14.9 | – | 22.4 | – | 27 | – | 13.9 | – | 11.9 | – | 20.1 | – | 25.8 µM | – | 19.2 µM | – | 15.4 µM | – | 12.9 µM |
| O=C(O)CCCc1ccccc1 | 436 µM and > 1000 µM | > 1000 | > 1000 | > 1000 | 150 µM and 17.3 µM | – | 294 µM and > 1000 µM | > 1000 | 364 µM and > 1000 µM | > 1000 | 340 µM and > 1000 µM | > 1000 | – | 348 µM and > 1000 µM | > 1000 | 604 µM and > 1000 µM | > 1000 | 363 µM and > 1000 µM | > 1000 | 295 µM and > 1000 µM |
